From patent publication US11583568B2, “Methods for administering angiotensin II” (La Jolla Pharma, LLC, priority 2017, dated 2023)
Read-outs that look alike come from different tables or passages of the source.

Columns and labels:
[1] = cited from earlier work
[2] = tested on: patients suffering from hypotension; test: 28-day survival of hypotensive patients given angiotensin II or placebo, by baseline Ang I:Ang II ratio; format: in vivo, human
Protocol: The ratio of blood concentration of angiotensin I to blood concentration of angiotensin II in patients suffering from hypotension was determined and the patients were administered Angiotensin II or a placebo and their survival monitored for 28 days. In general, a low ratio of blood concentration of angiotensin I to blood concentration of angiotensin II (relative high ANG2 state) is protective across the patient population in multivariate analysis. When assessed by tertile, patients with a low ratio of blood concentration of angiotensin I to blood concentration of angiotensin II had better outcomes as assessed by a 28-day all-cause mortality as compared to high ratio of blood concentration of angiotensin I to blood concentration of angiotensin II (K-M survival curves, FIGS. 1 to 4). […] See also Table I and Table II.

Molecule: CC[C@H](C)[C@H](NC(=O)[C@H](Cc1ccc(O)cc1)NC(=O)[C@@H](N)C(C)C)C(=O)N[C@@H](Cc1cnc[nH]1)C(=O)N1CCC[C@H]1C(=O)N[C@@H](Cc1ccccc1)C(=O)O [Angiotensin IV, Val-Tyr-Ile-His-Pro-Phe]
- Activity relative to angiotensin II ([1]; in words): less activity than angiotensin II

Molecule: Arg-Val-Tyr-Ile-His-Pro-Phe (RVYIHPF; printed: Arg-Val-Tyr-Ile-His-Pro-Phe) [Angiotensin III]
- Activity relative to angiotensin II ([1]; of the activity of angiotensin II): approximately 40%

Molecule: angiotensin II (DRVYIHPF; printed: Asp-Arg-Val-Tyr-Ile-His-Pro-Phe) [LJPC-501, text says patients were administered Angiotensin II or a placebo]
- Mortality at Day 28, Estimate (95% CI) ([2]; Baseline Ang I:Ang II ratio <1.63, n = 70): 41.6% (31.0%-54.0%)
- Mortality at Day 28, Estimate (95% CI) ([2]; Baseline Ang I:Ang II ratio ≥1.63, n = 72): 50.0% (39.1%-62.0%)
- Survival of patients with elevated Ang I:Ang II ratio ([2]; Elevated ratio patients given angiotensin II, compared with patients with a lower ratio): survival becomes comparable to patients who display a lower angiotensin I to angiotensin II ratio
- Treatment effect on 28-day all-cause mortality compared to control ([2]; Patients with the highest Ang I:Ang II ratio (relative low ANG2 state)): large treatment effect compared to control
- HR for mortality at Day 28, within treatment group ([2]; Within treatment group, baseline Ang I:Ang II ratio <1.63 vs ≥1.63): 0.80
